Reference: patent publication US10048254B2, “Cyclic-di-AMP specific detection” (priority 2013, dated 2018)

How the values were obtained:
[1] = target: T1, CabP (Streptococcus pneumoniae, UniProt A0A0H2ZNB5); assay: ELISA on CabP-coated plate, optimization of biotin-AHC-c-di-AMP concentration; assay type: binding
Experimental: The binding of c-di-AMP by CabP is very specific with good affinity, therefore, an ELISA method using a solid support coated with CabP to detect c-di-AMP was developed (FIG. 4). The coating concentration of CabP (Table 1) and the concentration of biotin-AHC-c-di-AMP (Table 2) were optimized.
In one embodiment, a 96-well microtiter plate was coated with CabP at 50 μg/ml in coating buffer (3.03 g/L Na2CO3 and 6.0 g/L NaHCO3), 100 μl/well, sealed and incubated overnight at 4° C.
The coating solution was removed by washing three times, that is, by filling the wells with 200 μl phosphate buffered saline (PBS) containing 0.05% (v/v) polysorbate 20 (TWEEN®-20), and aspirating.
The wells of the microtiter plate were then blocked with a blocking solution (1% BSA in PBS), 100 μl/well, and the plate incubated 1 h at room temperature.
To remove the blocking solution, the plates were washed 3 times with PBS containing 0.05% (v/v) polysorbate 20 (TWEEN®-20). 25 nM biotin-labeled c-di-AMP was diluted in 50 mM Tris-HCl (pH 8.0) or other appropriate media/solution and mixed with two-fold serial diluted standards (from 200 nM to 6.25 nM), or samples prepared within 50 mM Tris-HCl (pH 8.0) or the same media/solution. 100 μl/well, incubate 2 h at room temperature.
The standards and the samples were removed, and the wells washed 3 times with PBS containing 0.05% (v/v) polysorbate 20 (TWEEN®-20).
Streptavidin-HRP (Thermo Scientific) diluted at 1:10,000 with PBS containing 0.05% (v/v) polysorbate 20 (TWEEN®-20), was added to the wells, 100 μl/well, and the plate incubated 1 h at room temperature.
The streptavidin-HRP solution was removed by washing the wells 3 times with PBS containing 0.05% (v/v) polysorbate 20 (TWEEN®-20).
A substrate solution [20 ml 0.1 M citric acid (pH 5.0), 20 μl 30% H2O2, and 10 mg o-phenylenediamine (OPD) (Sigma, 1 tablet)], 100 μl/well, was added to each well. After approximately 30 minutes (typical) or sufficient color development, 100 μl/well stop solution (2 N H2SO4) was added to each well. The absorbance of each well was read with a plate reader at 492 nm.

[2] = system: biotin-labeled c-di-AMP; assay: Binding of truncated forms of CabP to biotin-labeled c-di-AMP; details: proteins expressed from pET28a(+)
Excerpt: To investigate the c-di-AMP binding region of CabP, truncated forms of CabP were expressed and their ability to bind c-di-AMP examined.
Truncated forms included: P1, in which 15 amino acids were removed from the N-terminal of CabP; P2, which results from the removal of 94 amino acid residues from the C-terminal of CabP, thereby eliminating the TrkA_C region; and P3, in which both N- and C-terminal ends of CabP are truncated.
All PCR products were cloned into pET28a(+) to express P1, P2, and P3. These proteins were then used to evaluate their interaction with c-di-AMP.
No binding of P1, P2 or P3 was observed using biotin-labeled c-di-AMP, while binding to intact CabP expressed from pST2788 was normal.

[3] = target: T1, CabP; assay: Blot of SDS-PAGE-separated protein on PVDF membrane incubated with [α-32P]c-di-AMP; assay type: binding; details: FIG. 2A
Experimental: (§1) The interaction between CabP and c-di-AMP was evaluated by multiple approaches. […] Proteins in the other half gel were transferred onto PVDF membrane and incubated with [α-^32P]c-di-AMP, which we generated from [α-^32P]ATP (MP Biomedicals) using purified Mycobacterium tuberculosis DacA (2). […] We then incubate labeled c-di-AMP with various concentration of CabP in the reaction with 50 mM Tris-HCl (pH7.5), 10 mM MgCl2, 5 mM CaCl2, 5 mM KCl, and 10% (v/v) glycerol. The samples were incubated for 30 min at room temperature and then separated the reactions with 8% native PAGE gel (3). […] However, the mobility of c-di-AMP was not retarded by PdxR (FIG. 2C), indicating the specificity.

[4] = system: PdxR; assay type: binding; details: PdxR control on PVDF membrane, FIG. 2A
[5] = target: T1, CabP; assay: Competition of unlabeled nucleotides with labeled c-di-AMP for CabP, native gel; assay type: binding; details: 1,000-fold excess of unlabeled nucleotide, 1 μM CabP, FIG. 2D
Experimental: FIGS. 2A-D Interaction of CabP with c-di-AMP. (A) CabP and PdxR (control) were loaded for SDS-PAGE. Gels were either stained with Coomassie Bright Blue (Staining) or blotted with labeled c-di-AMP (Blotting). M, molecular weight marker (Fisher Scientific). (B) Separation of CabP and c-di-AMP reactions with 8% native gel. (C) Mobility of c-di-AMP in the presence or absence of the indicated proteins. (D) Mobility of labeled c-di-AMP mixed with 1 μM CabP in the presence or absence of the indicated unlabeled nucleotides. “cold nt” refers to unlabeled nucleotide.
as §1

[6] = system: PdxR; assay: Mobility retardation of labeled c-di-AMP in 8% native PAGE gel (control protein); assay type: binding; details: FIG. 2C
[7] = target: T1, CabP; assay: Mobility retardation of labeled c-di-AMP in 8% native PAGE gel; assay type: binding; details: 30 min at room temperature, FIG. 2B, read-out: affinity constant
Experimental: as §1

[8] = target: M. tuberculosis DacA (Mycobacterium tuberculosis, UniProt P9WNW5); assay: as above; assay type: binding; details: purified M. tuberculosis DacA, FIG. 2C
M. tuberculosis DacA, sequence (P9WNW5 whole entry): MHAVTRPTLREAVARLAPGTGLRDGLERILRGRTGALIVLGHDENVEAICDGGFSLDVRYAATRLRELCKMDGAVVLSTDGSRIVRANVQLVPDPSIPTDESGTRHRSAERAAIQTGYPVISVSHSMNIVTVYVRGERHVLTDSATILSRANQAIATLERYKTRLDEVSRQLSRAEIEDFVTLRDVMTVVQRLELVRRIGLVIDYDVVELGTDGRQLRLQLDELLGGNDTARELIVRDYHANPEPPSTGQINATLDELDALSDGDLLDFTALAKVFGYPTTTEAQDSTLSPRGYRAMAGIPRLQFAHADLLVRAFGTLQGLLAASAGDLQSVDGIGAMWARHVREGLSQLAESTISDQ
Experimental: as §1

T1 sequence (A0A0H2ZNB5 whole entry, added parts left off): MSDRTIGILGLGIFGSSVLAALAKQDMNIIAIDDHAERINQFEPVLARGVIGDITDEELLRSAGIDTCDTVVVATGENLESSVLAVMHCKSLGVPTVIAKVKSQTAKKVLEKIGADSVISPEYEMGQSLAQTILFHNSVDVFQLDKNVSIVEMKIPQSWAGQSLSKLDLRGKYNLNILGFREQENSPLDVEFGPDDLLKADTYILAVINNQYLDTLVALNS

Q: What does the source list for biotin-AHC-c-di-AMP [B-c-di-AMP]?
A: ELISA signal, Binding Buffer ([1]; [B-c-di-AMP] 0.78125): 0.158; ELISA signal, Binding Buffer ([1]; [B-c-di-AMP] 1.5625): 0.2503; ELISA signal, Binding Buffer ([1]; [B-c-di-AMP] 3.125): 0.4685; ELISA signal, Binding Buffer ([1]; [B-c-di-AMP] 6.25): 0.7071; ELISA signal, Binding Buffer ([1]; [B-c-di-AMP] 12.5): 0.8821; ELISA signal, Binding Buffer ([1]; [B-c-di-AMP] 25): 1.1813; ELISA signal, Binding Buffer ([1]; [B-c-di-AMP] 50): 1.352; ELISA signal, Binding Buffer ([1]; [B-c-di-AMP] 100): 1.4377

Q: How did the “binding to biotin-labeled c-di-AMP” value [2] turn out when CabP was run?
A: Its value is “normal”.

Q: Which results are given for [α-^32P]c-di-AMP [labeled c-di-AMP]?
A: binding of labeled c-di-AMP to blotted protein [3]: bound; binding of labeled c-di-AMP to blotted protein [4]: not

Q: What does the source list for Nc1ncnc2c1ncn2[C@@H]1O[C@@H]2COP(=O)(O)O[C@H]3[C@@H](O)[C@H](n4cnc5c(N)ncnc54)O[C@@H]3COP(=O)(O)O[C@H]2[C@H]1O [c-di-AMP, cyclic di-adenosine monophosphate]?
A: free labeled c-di-AMP in the presence of unlabeled nucleotide [5]: free c-di-AMP could be observed; retardation of c-di-AMP mobility [6]: not retarded; Kd [7]: ~150 nM; retardation of c-di-AMP mobility [8]: retardation was also observed
